Several values for one entry are separate records, joined by “and”; a condition that tells them apart may be missing. Identical values can stand only once. Counter-ions that a name gives are not always drawn.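 Five compound concentrations were applied to cells in 96-well plates for 48 hours; endpoints were derived by simple linear interpolation of the resulting dose-response curve. Abbreviation: GI50, concentration required for 50% inhibition of growth.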 Activity calls are given as the source filed them. Rule as the data show it: active = GI50 up to about 1.1 µM and inactive = higher.
Experiments:
Experiment in all cases: inhibition of tumour cell growth, NCI panel, 48 h
TK-10 = system: TK-10
Hs-578T = system: Hs-578T
CAKI-1 = system: CAKI-1
LXFL 529 = system: LXFL 529
EKVX = system: EKVX
UACC-257 = system: UACC-257
UO-31 = system: UO-31
KM-20L2 = system: KM-20L2
SF-268 = system: SF-268
SNB-75 = system: SNB-75
SR = system: SR
NCI/ADR-RES = system: NCI/ADR-RES
ACHN = system: ACHN
DMS-273 = system: DMS-273
HOP-92 = system: HOP-92
DU-145 = system: DU-145

Measured: GI50

Nc1ccc2cc3ccc(N)cc3nc2c1 [PROFLAVINE SULFATE]
inactive: TK-10 2.7 µM and 4.33 µM | Hs-578T 2570 nM | CAKI-1 2.18 µM and 1.82 µM | EKVX 1240 nM | UACC-257 1.87 µM and 1.49 µM | SF-268 1.32 µM and 2.19 µM | SNB-75 1.59 µM and 1.16 µM | NCI/ADR-RES 1580 nM | HOP-92 1.45 µM and 2.49 µM | DU-145 2210 nM
active: LXFL 529 953 nM | UO-31 690 nM and 652 nM | KM-20L2 767 nM | SR 444 nM | ACHN 789 nM and 537 nM | DMS-273 839 nM

Source: ChEMBL document CHEMBL1201862, “PubChem BioAssay data set” (2004)
